Assay results published in publication PMC2949700, “Identification of the full set of Listeria monocytogenes penicillin-binding proteins and characterization of PBPD2 (Lmo2812)” (BMC Microbiology, 2010).
Values after ≈ are worked out from the molar mass of the structure shown. Marks after values point to notes of the source that are not given here.

Experiments:
[1] = molecular target: T1, purified recombinant Lmo2812 (PBPD2) (Listeria monocytogenes, UniProt Q8Y3M3); assay: Competition binding assay (ampicillin preincubation, then Boc-FL), purified recombinant protein; details: purified recombinant Lmo2812 preincubated with 100 μg/ml ampicillin
Method: (§1) Total whole cell proteins or purified recombinant protein resuspended in 50 mM NaPi buffer, pH 7.0 were labeled by incubation at 37°C for 30 min with different concentrations of Boc-FL (Molecular Probes), Boc-650 (Molecular Probes) or Amp-430 (prepared in the laboratory by coupling ampicillin to Alexa-430), and then separated on a 10% acrylamide, 3.3% cross-linkage SDS-PAGE gel. To avoid degradation of the fluorescent β-lactam antibiotics by β-lactamases, samples were incubated at 37°C with clavulanic acid at a final concentration of 10 μg/ml or EDTA at a final concentration of 10 mM for 30 min before labeling, where appropriate. Competition experiments were carried out by preincubation of the samples with ampicillin (100 μg/ml) for 30 min at 37°C, before adding the fluorescent antibiotic. The samples were then further incubated for 30 min at 37°C. PBPs were visualized directly on the polyacryloamide gel by fluorescence using a Typhoon 9410 imager (Amersham Biosciences) with excitation wavelengths of 588, 633 or 457 nm and emission filters 520BP40, 670BP30 or 555BP20 for Boc-FL, Boc-650 and Amp-430, respectively.

[2] = system: L. monocytogenes AD07 (Δlmo2812 Δlmo2754); assay: Microdilution MIC test; assay type: cell-based, Listeria monocytogenes; details: Listeria monocytogenes
Method: (§2) To determine the effect of these mutations on cell morphology, the strains EGD, KD2812 and DA07 were analyzed by scanning electron microscopy (SEM). […] At 30°C the average cell length compared to strain EGD was increased by 38.5% in strain KD2812 and by 44.8% in the double mutant strain. The respective values at 37°C were 37.5% and 43%. […] The variant cells were characteristically curved with a bend at either one or both ends and subterminal constrictions. The number of cells with altered morphology was increased as the growth temperature was raised (Figure 3; b, e, h). Cell bending was more pronounced in the population of AD07 mutant cells (Figure 3; c, f, i). […] Similar results were found for a mutant of L. monocytogenes lacking PBP5 (PBPD1) examined in a previous study.
(§3) Microdilution tests were performed using cation-adjusted Mueller-Hinton broth (CAMHB) supplemented with 5% lysed horse blood containing two-fold dilutions of the antimicrobial agents. These mixtures were dispensed in 100 μl aliquots into plastic 96-well plates. To prepare inocula, a single colony of each strain from a TSBYE plate was transferred into 10 ml of the same medium and incubated for 24 h at 37°C. These cultures were serially diluted in CAMHB to a concentration of 10^5 cfu/ml and 100 μl aliquots were added to the microdilution plates. The plates were incubated for 18-20 h at 37°C before the reading of the MIC endpoints. The MIC was the lowest antibiotic concentration at which visible growth was inhibited.

[3] = system: L. monocytogenes EGD; assay: Microdilution MIC test; assay type: cell-based, Listeria monocytogenes; details: Listeria monocytogenes
Method: as §2, §3

[4] = system: L. monocytogenes KD2812 (Δlmo2812); assay: Microdilution MIC test; assay type: cell-based, Listeria monocytogenes; details: Listeria monocytogenes
Method: as §2, §3

[5] = molecular target: PBPB3 (Listeria monocytogenes, UniProt Q8Y9T2); assay: Competition binding assay (ampicillin preincubation, then Boc-FL), whole cells
Method: (§4) PBPs form a covalent complex with β-lactam antibiotics. When fluorescent β-lactams are employed, these proteins can be visualized immediately following SDS-PAGE [17]. Total protein from whole cells or a cell wall extract of L. monocytogenes EGD were incubated with different concentrations of Boc-FL, Bocillin-650 (Boc-650) or Ampicillin-Alexa430 (Amp-430) for 30 min at 37°C. The highest affinity binding was obtained with Boc-FL and bands identified using this compound in the whole cell assay are shown in Figure 1. PBPs A1, B2, B1, A2, B3, D1, C1 and C2 were also identified with Boc-650 and Amp-430 (data not shown). Two types of non-specific band were also observed (lane 1, 0 μM Boc-FL) and they represent the natural intrinsic fluorescence of other proteins in the cell extract. However, the bands that are absent in lane 8 (ampicillin 100 μg/ml, 50 μM Boc-FL) compared with lane 7 (50 μM Boc-FL) represent specific PBPs. Those bands that completely disappeared (PBPB1, PBPD1), partially disappeared (PBPA1, PBPB2, PBPA2 and PBPB3) or remained present (PBPC1 and PBPC2) reflect total, partial and no binding of ampicillin, respectively. The results of an experiment examining saturation with 50 μM Boc-FL, the binding capacity of each PBP for Boc-FL and the affinity of the PBPs for ampicillin (Amp) are presented in Table 2. These assays involved incubation of whole cell with ampicillin followed by a similar incubation with Boc-FL. Therefore, only those PBPs with no or low affinity for ampicillin would be able to bind Boc-FL during the second incubation. The deacylation rate for the PBPs is actually extremely low, which permitted their detection in the gel for several hours after binding.
(§5) Figure 1 Complete set of PBPs identified with Boc-FL in whole cells of L. monocytogenes. Samples of whole cells (100 μg of total protein) were labeled with Boc-FL at concentrations of 0 (1), 0.5 (2), 1 (3), 2.5 (4), 5 (5), 10 (6), 50 μM (7) and 50 μM plus 100 μg/ml ampicillin (8). Labeled bands were detected directly on the gel, quantified, and their molecular mass estimated. The affinity of each band for Boc-FL (ID50) was estimated from their fluorescence as a function of the concentration of Boc-FL. The name of the PBP corresponding to each band is indicated on the right, while the positions of molecular weight markers (bars) and unspecific bands (arrowheads) are shown on the left.
as §1

[6] = molecular target: T2, PBPB1 (PBP3) (Listeria monocytogenes, UniProt Q8Y763); assay: as above
Method: as §4, §5, §1

[7] = molecular target: T3, PBPA2 (PBP4) (Listeria monocytogenes, UniProt Q8Y547); assay: as above
Method: as §4, §5, §1

[8] = molecular target: T4, PBPD1 (PBP5) (Listeria monocytogenes, UniProt Q8Y3S7); assay: as above
Method: as §4, §5, §1

[9] = molecular target: T5, PBPB2 (PBP2) (Listeria monocytogenes, UniProt Q8Y5L8); assay: as above
Method: as §4, §5, §1

[10] = molecular target: T6, PBPA1 (PBP1) (Listeria monocytogenes, UniProt Q8Y610); assay: as above
Method: as §4, §5, §1

[11] = molecular target: PBPC2 (Listeria monocytogenes, UniProt Q8Y5Y7); assay: as above
Method: as §4, §5, §1

[12] = molecular target: PBPC1 (Listeria monocytogenes, UniProt Q8Y9I8); assay: as above
Method: as §4, §5, §1

[13] = molecular target: T1, purified recombinant Lmo2812 (PBPD2); assay: Fluorescent antibiotic binding assay, purified recombinant protein
Method: The purified protein was incubated with different concentrations of Boc-FL (0.25, 0.5, 2.5, 5 and 10 μM). […] Lmo2812 was the major band on gels, with a slower migrating minor band thought to represent a dimeric form (Figure 2).
Figure 2 Purified recombinant L. monocytogenes Lmo2812 (PBPD2) identified with Boc-FL. Samples of purified recombinant Lmo2812 (10 μg) were labeled with Boc-FL at concentrations of 0 (1), 0.25 (2), 0.5 (3), 2.5 (4), 5 (5) and 10 μM (6). Labeled bands were detected directly on the gel, quantified and their molecular mass estimated. The affinity of the bands for Boc-FL (Kd50) was estimated from their fluorescence as a function of the concentration of Boc-FL. The names of the bands are indicated on the right, and the positions of the molecular weight markers are shown on the left.
The β-lactam binding capacity of Lmo2812 was evaluated with three different fluorescent antibiotics: Boc-FL, Boc-650 and Amp-430.
as §1, with “respectively. […]” for “respectively.”

[14] = molecular target: T2, PBPB1 (PBP3); assay: Fluorescent antibiotic binding assay, whole cells; details: read-out: Boc-FL Kd50, 30 min at 37°C, estimated from band fluorescence as a function of Boc-FL concentration
Method: as §4, §5
as §1, with “The samples were then further incubated for 30 min at 37°C.” left out

[15] = molecular target: T3, PBPA2 (PBP4); assay: Fluorescent antibiotic binding assay, whole cells; details: read-out: Boc-FL Kd50, 30 min at 37°C, estimated from band fluorescence as a function of Boc-FL concentration
Method: as §4, §5
as §1, with “The samples were then further incubated for 30 min at 37°C.” left out

[16] = molecular target: T4, PBPD1 (PBP5); assay: Fluorescent antibiotic binding assay, whole cells; details: read-out: Boc-FL Kd50, 30 min at 37°C, estimated from band fluorescence as a function of Boc-FL concentration
Method: as §4, §5
as §1, with “The samples were then further incubated for 30 min at 37°C.” left out

[17] = molecular target: T5, PBPB2 (PBP2); assay: Fluorescent antibiotic binding assay, whole cells; details: read-out: Boc-FL Kd50, 30 min at 37°C, estimated from band fluorescence as a function of Boc-FL concentration
Method: as §4, §5
as §1, with “The samples were then further incubated for 30 min at 37°C.” left out

[18] = molecular target: T6, PBPA1 (PBP1); assay: Fluorescent antibiotic binding assay, whole cells; details: read-out: Boc-FL Kd50, 30 min at 37°C, estimated from band fluorescence as a function of Boc-FL concentration
Method: as §4, §5
as §1, with “The samples were then further incubated for 30 min at 37°C.” left out

[19] = ampicillin 100 μg/ml, 50 μM Boc-FL, Figure 1 lane 8 vs lane 7
[20] = preincubated with 100 μg/ml ampicillin, then 50 μM Boc-FL

T3 sequence (Q8Y547 entry or part of it): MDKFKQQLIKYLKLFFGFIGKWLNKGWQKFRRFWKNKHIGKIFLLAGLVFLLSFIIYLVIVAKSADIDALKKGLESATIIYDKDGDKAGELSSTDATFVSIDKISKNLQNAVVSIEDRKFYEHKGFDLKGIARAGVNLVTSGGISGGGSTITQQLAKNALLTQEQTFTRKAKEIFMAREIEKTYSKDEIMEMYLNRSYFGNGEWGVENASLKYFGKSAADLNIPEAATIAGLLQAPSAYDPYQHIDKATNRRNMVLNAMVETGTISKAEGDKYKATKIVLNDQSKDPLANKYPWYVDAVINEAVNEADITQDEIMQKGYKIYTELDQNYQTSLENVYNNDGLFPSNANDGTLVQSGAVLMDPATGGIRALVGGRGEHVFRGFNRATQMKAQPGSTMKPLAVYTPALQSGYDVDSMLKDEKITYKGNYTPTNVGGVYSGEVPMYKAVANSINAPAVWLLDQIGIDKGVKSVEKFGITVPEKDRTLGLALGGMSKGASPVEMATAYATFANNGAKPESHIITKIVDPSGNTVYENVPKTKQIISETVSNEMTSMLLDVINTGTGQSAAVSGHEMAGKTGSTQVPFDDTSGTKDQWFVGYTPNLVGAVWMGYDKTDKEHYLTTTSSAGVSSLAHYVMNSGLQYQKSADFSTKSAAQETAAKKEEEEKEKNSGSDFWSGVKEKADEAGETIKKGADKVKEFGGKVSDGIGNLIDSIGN
T5 sequence (Q8Y5L8 entry or part of it): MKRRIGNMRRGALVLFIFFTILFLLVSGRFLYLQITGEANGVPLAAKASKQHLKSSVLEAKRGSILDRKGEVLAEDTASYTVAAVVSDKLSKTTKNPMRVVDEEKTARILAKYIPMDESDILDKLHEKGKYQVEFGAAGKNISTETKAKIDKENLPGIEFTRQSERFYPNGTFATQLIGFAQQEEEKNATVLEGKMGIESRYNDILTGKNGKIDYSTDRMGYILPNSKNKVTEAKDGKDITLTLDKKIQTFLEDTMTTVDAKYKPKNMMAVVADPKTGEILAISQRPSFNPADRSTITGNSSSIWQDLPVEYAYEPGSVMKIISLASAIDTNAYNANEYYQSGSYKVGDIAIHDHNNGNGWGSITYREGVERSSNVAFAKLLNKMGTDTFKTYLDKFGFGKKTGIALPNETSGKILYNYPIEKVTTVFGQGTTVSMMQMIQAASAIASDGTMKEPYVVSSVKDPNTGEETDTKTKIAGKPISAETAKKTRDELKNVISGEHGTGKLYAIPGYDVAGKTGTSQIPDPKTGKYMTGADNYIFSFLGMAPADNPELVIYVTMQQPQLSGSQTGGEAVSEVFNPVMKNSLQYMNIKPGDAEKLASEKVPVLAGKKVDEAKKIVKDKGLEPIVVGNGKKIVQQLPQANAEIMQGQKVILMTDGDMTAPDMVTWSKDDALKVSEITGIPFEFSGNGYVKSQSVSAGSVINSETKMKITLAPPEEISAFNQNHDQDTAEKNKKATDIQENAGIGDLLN
T2 sequence (Q8Y763 entry or part of it): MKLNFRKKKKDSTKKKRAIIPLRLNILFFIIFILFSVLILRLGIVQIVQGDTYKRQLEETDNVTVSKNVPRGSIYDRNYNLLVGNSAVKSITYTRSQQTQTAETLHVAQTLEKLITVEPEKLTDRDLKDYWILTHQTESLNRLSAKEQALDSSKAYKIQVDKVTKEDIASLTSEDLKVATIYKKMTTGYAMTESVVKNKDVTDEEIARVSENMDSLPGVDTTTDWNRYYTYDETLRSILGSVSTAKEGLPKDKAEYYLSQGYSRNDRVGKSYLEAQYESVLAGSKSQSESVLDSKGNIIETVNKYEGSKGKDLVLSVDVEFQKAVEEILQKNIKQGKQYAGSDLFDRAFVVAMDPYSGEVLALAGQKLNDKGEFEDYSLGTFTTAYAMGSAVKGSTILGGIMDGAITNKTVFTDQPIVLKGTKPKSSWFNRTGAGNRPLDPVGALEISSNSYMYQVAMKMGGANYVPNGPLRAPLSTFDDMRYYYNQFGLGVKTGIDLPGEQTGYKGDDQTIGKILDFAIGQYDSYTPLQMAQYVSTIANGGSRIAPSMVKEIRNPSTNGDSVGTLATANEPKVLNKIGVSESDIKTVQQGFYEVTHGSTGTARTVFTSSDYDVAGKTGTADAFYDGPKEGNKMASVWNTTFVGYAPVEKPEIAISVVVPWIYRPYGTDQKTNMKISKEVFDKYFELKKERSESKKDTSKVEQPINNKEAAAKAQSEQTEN
T6 sequence (Q8Y610 entry or part of it): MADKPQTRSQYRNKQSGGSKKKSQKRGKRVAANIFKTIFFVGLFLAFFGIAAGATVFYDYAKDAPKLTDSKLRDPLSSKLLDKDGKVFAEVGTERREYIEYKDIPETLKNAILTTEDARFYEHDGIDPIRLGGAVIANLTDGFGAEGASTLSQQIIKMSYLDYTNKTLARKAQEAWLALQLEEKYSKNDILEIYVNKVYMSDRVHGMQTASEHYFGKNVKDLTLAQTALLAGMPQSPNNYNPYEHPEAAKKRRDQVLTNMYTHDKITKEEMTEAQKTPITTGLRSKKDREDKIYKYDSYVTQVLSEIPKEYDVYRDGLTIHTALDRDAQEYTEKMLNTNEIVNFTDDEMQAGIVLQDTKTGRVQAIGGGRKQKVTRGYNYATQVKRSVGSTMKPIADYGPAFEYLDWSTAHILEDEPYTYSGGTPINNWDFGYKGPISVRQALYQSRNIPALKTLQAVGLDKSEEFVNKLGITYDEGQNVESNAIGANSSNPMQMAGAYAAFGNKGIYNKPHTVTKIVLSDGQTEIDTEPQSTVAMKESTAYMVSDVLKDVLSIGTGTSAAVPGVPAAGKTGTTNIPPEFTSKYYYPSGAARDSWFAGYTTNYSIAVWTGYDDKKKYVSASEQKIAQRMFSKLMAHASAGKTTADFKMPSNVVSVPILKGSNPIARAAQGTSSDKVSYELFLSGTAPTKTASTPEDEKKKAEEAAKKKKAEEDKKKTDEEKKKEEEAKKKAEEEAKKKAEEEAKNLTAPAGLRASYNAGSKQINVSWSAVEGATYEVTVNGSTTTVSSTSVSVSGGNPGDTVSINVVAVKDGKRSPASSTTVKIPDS
T4 sequence (Q8Y3S7 entry or part of it): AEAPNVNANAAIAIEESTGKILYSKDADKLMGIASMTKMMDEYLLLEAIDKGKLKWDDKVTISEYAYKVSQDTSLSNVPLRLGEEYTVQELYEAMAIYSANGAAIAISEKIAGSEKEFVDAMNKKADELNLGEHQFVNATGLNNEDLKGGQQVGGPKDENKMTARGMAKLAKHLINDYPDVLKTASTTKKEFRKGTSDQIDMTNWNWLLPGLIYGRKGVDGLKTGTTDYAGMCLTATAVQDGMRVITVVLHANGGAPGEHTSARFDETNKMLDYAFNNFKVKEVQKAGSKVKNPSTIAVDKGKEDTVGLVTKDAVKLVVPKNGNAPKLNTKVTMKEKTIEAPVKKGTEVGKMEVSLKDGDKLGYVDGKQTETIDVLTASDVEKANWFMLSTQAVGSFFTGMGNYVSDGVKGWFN
Chain of PBPC2 (Q8Y5Y7 entry or part of it): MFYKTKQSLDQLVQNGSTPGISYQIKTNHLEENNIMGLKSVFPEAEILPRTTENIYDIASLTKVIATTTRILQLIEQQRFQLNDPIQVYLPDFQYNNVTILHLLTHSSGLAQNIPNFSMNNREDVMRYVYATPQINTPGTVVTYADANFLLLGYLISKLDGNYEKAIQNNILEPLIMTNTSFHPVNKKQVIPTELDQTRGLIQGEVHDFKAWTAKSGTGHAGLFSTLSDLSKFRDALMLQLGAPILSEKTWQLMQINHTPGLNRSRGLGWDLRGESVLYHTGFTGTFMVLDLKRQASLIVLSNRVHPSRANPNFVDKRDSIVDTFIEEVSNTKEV
T1 sequence (Q8Y3M3 entry or part of it): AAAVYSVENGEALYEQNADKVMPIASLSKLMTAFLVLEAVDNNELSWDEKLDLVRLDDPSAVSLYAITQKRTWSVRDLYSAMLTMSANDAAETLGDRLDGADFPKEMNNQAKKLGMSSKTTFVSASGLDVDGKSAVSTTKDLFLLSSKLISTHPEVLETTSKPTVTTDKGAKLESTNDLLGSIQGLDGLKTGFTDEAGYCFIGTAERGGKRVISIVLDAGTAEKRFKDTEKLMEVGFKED
Chain of PBPC1 (Q8Y9I8 entry or part of it): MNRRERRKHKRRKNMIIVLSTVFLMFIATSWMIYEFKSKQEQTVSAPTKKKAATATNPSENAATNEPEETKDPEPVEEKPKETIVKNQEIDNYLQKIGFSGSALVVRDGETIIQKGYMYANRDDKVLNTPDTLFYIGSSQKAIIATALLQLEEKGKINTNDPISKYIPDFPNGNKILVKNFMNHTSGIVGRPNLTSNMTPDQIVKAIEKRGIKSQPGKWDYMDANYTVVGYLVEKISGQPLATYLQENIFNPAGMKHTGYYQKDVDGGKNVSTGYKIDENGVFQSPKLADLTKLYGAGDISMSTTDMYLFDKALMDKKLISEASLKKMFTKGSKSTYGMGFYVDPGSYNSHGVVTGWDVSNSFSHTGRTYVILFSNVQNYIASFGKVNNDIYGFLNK

## CC1(C)S[C@@H]2[C@H](NC(=O)[C@H](N)c3ccccc3)C(=O)N2[C@H]1C(=O)O [ampicillin]
[1]
  percentage of Boc-FL binding capacity remaining: 0^b %
[2]
  MIC: 0.16 µg/mL (≈ 0.458 µM)
[3]
  MIC: 0.31 µg/mL (≈ 0.887 µM)
[4]
  MIC: 0.31 µg/mL (≈ 0.887 µM)
[5]; [19]
  binding of ampicillin (disappearance of Boc-FL band): partial
[5]; [20]
  percentage of Boc-FL binding capacity remaining: 95%
[6]; Amp at 100 μg/ml
  inhibition of Boc-FL binding: completely inhibited
[6]; [19]
  binding of ampicillin (disappearance of Boc-FL band): total
[6]; [20]
  percentage of Boc-FL binding capacity remaining: 0%
[7]; [19]
  binding of ampicillin (disappearance of Boc-FL band): partial
[7]; [20]
  percentage of Boc-FL binding capacity remaining: 90%
[8]; Amp at 100 μg/ml
  inhibition of Boc-FL binding: completely inhibited
[8]; [19]
  binding of ampicillin (disappearance of Boc-FL band): total
[8]; [20]
  percentage of Boc-FL binding capacity remaining: 0%
[9]; [19]
  binding of ampicillin (disappearance of Boc-FL band): partial
[9]; [20]
  percentage of Boc-FL binding capacity remaining: 90%
[10]; [19]
  binding of ampicillin (disappearance of Boc-FL band): partial
[10]; [20]
  percentage of Boc-FL binding capacity remaining: 95%
[11]; [19]
  binding of ampicillin (disappearance of Boc-FL band): no binding
[11]; [20]
  percentage of Boc-FL binding capacity remaining: 100%
[12]; [19]
  binding of ampicillin (disappearance of Boc-FL band): no binding
[12]; [20]
  percentage of Boc-FL binding capacity remaining: 100%

## Cc1cc(C)n2c1C=C1C=CC(CCC(=O)Nc3ccc(OCC(=O)N[C@@H]4C(=O)N5[C@@H]4SC(C)(C)[C@@H]5C(=O)O)cc3)=[N+]1[B-]2(F)F [Boc-FL, Bocillin-FL]
[13]
  Kd: 2500 nM
[14]
  Kd: 250 nM
[15]
  Kd: 250 nM
[16]
  Kd: 5000 nM
[17]
  Kd: 250 nM
[18]
  Kd: > 10000 nM
